Reference: US20090069319A1, “IMIDAZOPYRIDINE ANALOGS AND THEIR USE AS AGONISTS OF THE WNT-BETA-CATENIN CELLULAR MESSAGING SYSTEM” (Wyeth, priority 2007, published 2009)

Assay: Functional Dkk1-LRP5-TCF-Luciferase Assay in U2OS Cells (table columns: A=MAX FOLD Induction/DMSO CONTROL; B=fold induction @ 2.0 uM; C=fold induction @ 20.0 uM)
Assay type: cell-based, Human
Conditions: Homo sapiens, U2OS; for fold induction at 2 µM: 2.0 uM compound; for fold induction at 20 µM: 20.0 uM compound
Experimental: Biological Evaluation—Functional Dkk1-LRP5-TCF-Luciferase Assay in U2OS Cells
U2OS Human Bone derived cells (Osteosarcoma) are grown in McCoy's 5A Medium (Modified), with L-glutamine (GIBCO Cat No. 16600-082)+1% Pen-Strep+5% FBS) plated at 1×10^7 cells/T175 cm flask. The next day, the cells are co-transfected overnight with the following plasmids: (a) Test reporter (16×TCF-TK-FireFly-Luci), (b) Internal Control Reporter (TK-Renilla-Luci), (c) Wnt3a and (d) Dkk1. GIBCO's Lipofectamine 2000 and OptiMEM were used for the transfection. After a minimum of 4 hr of transfection at 37° C., the plasmid-transfected cells are trypsinized, counted, and suspended in freezing medium (95% FBS+5% DMSO). The reporter cells are frozen at 1×10^7/ml concentrations, aliquoted into 0.5 ml or 2.5 ml/tube and stored at −70° C.
The following day, test compounds are added under HTS setup by Plate Track into 384 well plates (white, TC treated, Falcon plate) such that the final concentration of the compounds in 20 μL/well cell will be 5 μg/ml (final concentration of DMSO=0.25% and final compound concentration=20 μM). Vials of frozen reporter cells are thawed by warming the vial in a 37° C. water bath for 60-120 seconds with some shaking until the cells formed a suspension. The thawed cells are transferred into a cold 50 ml (or larger) tube and mixed well by gentle pipetting. The appropriate amount of cold Phenol Red Free RPMI medium-1640 (GIBCO, Cat # 11835-030) with L-glutamine is added, both with ˜5% FBS (GIBCO-BRL, Cat. # 16000-044), so that 20 μl of the final cell suspension will contain ˜5,000 cells. The cell dilution is done such that the final concentration of FBS was ˜5%. Diluted cells (20 μl) are added into each well in a 384 well plate. The plate is incubated at 37° C. under 5% CO2 for ˜20 h. Bright-Glo substrate, 2.5 μl/well is added, and the Fire Fly Luciferase is measured using VLUX (60 second exposure) immediately after the substrate was added. Test compounds are dissolved in DMSO (100%) and added to specified wells. Raw luciferase signal data obtained as relative luminescence units (RLUs) for the test compounds are normalized to the signal of the mean of the sample reporter cell plate with DMSO.
Active compounds have TCF-luciferase ratios of 2.5 fold or greater over DMSO. All compounds show a signal increase of at least 10% compared to a signal with only DMSO added.
A=MAX FOLD Induction/DMSO CONTROL
B=TCF ACTIVITY/DMSO CONTROL Fold induction @ 2.0 uM C=TCF ACTIVITY/DMSO CONTROL Fold induction @ 20.0 uM

SMILES	fold induction at 2 µM	fold induction at 20 µM
CCc1nc2c(-c3ccc4ccccc4c3)ccnc2n1C1CCNCC1 [2-ethyl-7-(2-naphthyl)-3-piperidin-4-yl-3H-imidazo[4,5-b]pyridine]	1.39	
c1ccc2cc(-c3ccnc4c3nc(-c3ccc5ccccc5c3)n4C3CCNCC3)ccc2c1 [2,7-di-2-naphthyl-3-piperidin-4-yl-3H-imidazo[4,5-b]pyridine]	1.02	
c1ccc(-c2nc3c(-c4ccc5ccccc5c4)ccnc3n2C2CCNCC2)nc1 [7-(2-naphthyl)-3-piperidin-4-yl-2-pyridin-2-yl-3H-imidazo[4,5-b]pyridine]	1.12	0.02
Cc1ccc(-c2nc3cc(-c4ccc5ccccc5c4)cnc3n2C2CCNCC2)c(C)c1 [2-(2,4-dimethylphenyl)-6-(2-naphthyl)-3-piperidin-4-yl-3H-imidazo[4,5-b]pyridine]	1.31	
Cc1nc2c(-c3ccc4ccccc4c3)ccnc2n1[C@H]1CCNC1 [2-methyl-7-(2-naphthyl)-3-[(3S)-pyrrolidin-3-yl]-3H-imidazo[4,5-b]pyridine]	1.57	0.4
c1ccc2cc(-c3ccnc4c3nc(-c3csc5ccccc35)n4C3CCNCC3)ccc2c1 [2-(1-benzothien-3-yl)-7-(2-naphthyl)-3-piperidin-4-yl-3H-imidazo[4,5-b]pyridine]	1.28	
CC(=O)n1cc(-c2nc3c(-c4ccc5ccccc5c4)ccnc3n2C2CCNCC2)c2ccccc21 [2-(1-acetyl-1H-indol-3-yl)-7-(2-naphthyl)-3-piperidin-4-yl-3H-imidazo[4,5-b]pyridine]	1.48	
COc1cc(-c2nc3c(-c4ccc5ccccc5c4)ccnc3n2C2CCNCC2)ccc1O [2-methoxy-4-[7-(2-naphthyl)-3-piperidin-4-yl-3H-imidazo[4,5-b]pyridin-2-yl]phenol]	1.63	0.01
Oc1cccc(-c2nc3c(-c4ccc5ccccc5c4)ccnc3n2C2CCNCC2)c1O [3-[7-(2-naphthyl)-3-piperidin-4-yl-3H-imidazo[4,5-b]pyridin-2-yl]benzene-1,2-diol]	1.33	
CCCCc1nc2cc(-c3ccc4ccccc4c3)cnc2n1C1CCNCC1 [2-butyl-6-(2-naphthyl)-3-piperidin-4-yl-3H-imidazo[4,5-b]pyridine]	1.21	
CN(C)C(=O)N1CCC(n2c(=O)n(C)c3c(-c4ccc5ccccc5c4)ccnc32)CC1 [N,N-dimethyl-4-[1-methyl-7-(2-naphthyl)-2-oxo-1,2-dihydro-3H-imidazo[4,5-b]pyridin-3-yl]piperidine-1-carboxamide]	1.19	0.35
c1ccc2cc(-c3cnc4c(c3)nc(-c3ccc5ccccc5c3)n4C3CCNCC3)ccc2c1 [2,6-di-2-naphthyl-3-piperidin-4-yl-3H-imidazo[4,5-b]pyridine]	1.06	
c1ccc(-c2nc3c(-c4ccc5ccccc5c4)ccnc3n2C2CCNCC2)cc1 [7-(2-naphthyl)-2-phenyl-3-piperidin-4-yl-3H-imidazo[4,5-b]pyridine]	1.23	0.05
c1csc(-c2nc3c(-c4ccc5ccccc5c4)ccnc3n2C2CCNCC2)c1 [7-(2-naphthyl)-3-piperidin-4-yl-2-(2-thienyl)-3H-imidazo[4,5-b]pyridine]	1.22	0.04
c1csc(-c2nc3cc(-c4ccc5ccccc5c4)cnc3n2C2CCNCC2)c1 [6-(2-naphthyl)-3-piperidin-4-yl-2-(2-thienyl)-3H-imidazo[4,5-b]pyridine]	1.04	
Fc1ccccc1-c1nc2cc(-c3ccc4ccccc4c3)cnc2n1C1CCNCC1 [2-(2-fluorophenyl)-6-(2-naphthyl)-3-piperidin-4-yl-3H-imidazo[4,5-b]pyridine]	1.29	
CC(C)NC(=O)N1CCC(n2cnc3c(-c4ccc5ccccc5c4)ccnc32)CC1 [N-isopropyl-4-[7-(2-naphthyl)-3H-imidazo[4,5-b]pyridin-3-yl]piperidine-1-carboxamide]	1.2	0.84
